{
  "source": "patent US20220387403A1",
  "about": "“COMPOUNDS, COMPOSITIONS AND METHODS FOR TREATING NASH, NAFLD, AND OBESITY” (CVI Pharmaceuticals Limited, priority 2019, published 2022)",
  "key": {"Male Wister rats [1]": {"system": "Male Wister rats", "assay": "Food intake and body weight in Wister rats under a high fat and high cholesterol diet", "format": "in vivo, rat", "settings": "4-week treatment", "procedure": "The food intake and body weight gains were measured every week during the 4-week treatment period. […] In the first week, the amount of food consumed was decreased in CRDL-treated group. […] The ability of CRDL to activate AMPK signaling pathway to increase energy expenditure and to reduce fat accumulation likely contributes to this weight reducing effect."}, "Male Wister rats [2]": {"system": "Male Wister rats", "assay": "Lipid lowering effects in Wister rats under a high fat and high cholesterol diet", "format": "in vivo, rat", "settings": "75 mg/kg daily oral", "procedure": "Male Wister rats were used as an animal model to examine the in vivo effects of (14R, 13S)-CRDL in plasma lipid levels.\nIn one experiment, 18 Wister male rats under a high fat and high cholesterol diet were divided into 2 groups. One group was given (14R, 13S)-CRDL hydrochloride salt orally at a daily dose of 75 mg/kg by an orogastric tube for 4 weeks, and the control group received daily treatment of equal amount of vehicle (0.1 M sodium phosphate, pH 3.5). Serum lipid levels were measured weekly.\nAt the end of treatment, Rats were sacrificed and blood and sera were collected to measure several critical parameters for liver function and kidney function. […] Kidney function and blood glucose level were not changed by the treatment."}},
  "data": [
    {"smiles": "COc1cc2c(cc1OC)[C@H]1[C@@H](C)c3ccc(OC)c(OC)c3CN1CC2", "note": "[CRDL, corydaline]", "values": [
      {"measurement": "body weight", "setting": "Male Wister rats [1]", "result": "maintained constant"},
      {"measurement": "adverse effects during the entire treatment", "setting": "Male Wister rats [2]; 4 weeks", "result": "No any adverse effects"},
      {"measurement": "Kidney function and blood glucose level", "setting": "Male Wister rats [2]; end of 4-week treatment", "result": "not changed"},
      {"measurement": "serum levels of AST and ALT vs control group", "setting": "Male Wister rats [2]; end of 4-week treatment", "result": "statistically lower"},
      {"measurement": "LDL-c level, of control", "setting": "Male Wister rats [2]; hydrochloride salt, 4 weeks", "result": 25.6, "unit": "%"},
      {"measurement": "LDL-c level, of day 0", "setting": "Male Wister rats [2]; hydrochloride salt, 4 weeks", "result": 22.4, "unit": "%"},
      {"measurement": "TC compared to the control group", "setting": "Male Wister rats [2]; hydrochloride salt, 4 weeks", "result": 33.8, "unit": "%"},
      {"measurement": "TC, of the pretreatment level", "setting": "Male Wister rats [2]; hydrochloride salt, 4 weeks", "result": 33.0, "unit": "%"},
      {"measurement": "TG level, of the control", "setting": "Male Wister rats [2]; hydrochloride salt, 4 weeks", "result": 29, "unit": "%"},
      {"measurement": "TG level, of the pretreatment level (day 0)", "setting": "Male Wister rats [2]; hydrochloride salt, 4 weeks", "result": 27, "unit": "%"}
    ]}
  ]
}
